Experimental data: ChEMBL document CHEMBL4680137, “Synthesis and biological evaluation of some novel 1,2,3-triazole hybrids of myrrhanone B isolated from Commiphora mukul gum resin: Identification of potent antiproliferative leads active against prostate cancer cells (PC-3)” (Eur J Med Chem, 2020)
Activity calls are given as the source filed them. No cut-off for these calls is given here.

How the values were obtained:
SiHa = assay: Antiproliferative activity against human SiHa cells assessed as reduction in cell viability after 48 hrs by MTT assay; format: functional, cell-based
PC-3 [1] = assay: Induction of apoptosis in human PC-3 cells assessed as necrotic cells at 7.5 uM after 24 hrs by Annexin VFITC/PI staining based flow cytometric analysis (reference value: 4%); format: functional
[2] = Inhibition of Saccharomyces cerevisiae alpha-glucosidase using p-nitophenyl alpha […]D-glucoside incubated for 45 mins
PC-3 [3] = assay: Induction of cell cycle arrest in human PC-3 cells assessed as accumulation at G0/G1 phase at 5 uM after 48 hrs by propidium iodide staining based flow cytometric analysis (reference value: 67.6%); format: functional
PC-3 [4] = assay: Induction of cell cycle arrest in human PC-3 cells assessed as accumulation at G2/M phase at 10 uM after 48 hrs by propidium iodide staining based flow cytometric analysis (reference value: 20.7%); format: functional
PC-3 [5] = assay: Induction of cell cycle arrest in human PC-3 cells assessed as accumulation at S phase at 10 uM after 48 hrs by propidium iodide staining based flow cytometric analysis (reference value: 7.69%); format: functional
PC-3 [6] = assay: Induction of apoptosis in human PC-3 cells assessed as viable cells at 7.5 uM after 24 hrs by Annexin VFITC/PI staining based flow cytometric analysis (reference value: 95.8%); format: functional; conditions: read-out: Activity
DU-145 = assay: Antiproliferative activity against human DU-145 cells assessed as reduction in cell viability after 48 hrs by MTT assay; format: functional, cell-based; conditions: DU-145, 48 h
PC-3 [7] = assay: Induction of apoptosis in human PC-3 cells assessed as late apoptotic cells at 5 uM after 24 hrs by Annexin VFITC/PI staining based flow cytometric analysis (reference value: 0.2%); format: functional
PC-3 [8] = assay: Induction of cell cycle arrest in human PC-3 cells assessed as accumulation at S phase at 5 uM after 48 hrs by propidium iodide staining based flow cytometric analysis (reference value: 7.69%); format: functional
U-87 MG = assay: Antiproliferative activity against human U87 cells assessed as reduction in cell viability after 48 hrs by MTT assay; format: functional, cell-based, U-87MG ATCC
PC-3 [9] = assay: Induction of cell cycle arrest in human PC-3 cells assessed as accumulation at G2/M phase at 5 uM after 48 hrs by propidium iodide staining based flow cytometric analysis (reference value: 20.7%); format: functional
PC-3 [10] = assay: Induction of apoptosis in human PC-3 cells assessed as early apoptotic cells at 7.5 uM after 24 hrs by Annexin VFITC/PI staining based flow cytometric analysis (reference value: 0.1%); format: functional
PC-3 [11] = assay: Induction of apoptosis in human PC-3 cells assessed as viable cells at 5 uM after 24 hrs by Annexin VFITC/PI staining based flow cytometric analysis (reference value: 95.8%); format: functional; conditions: read-out: Activity
PC-3 [12] = assay: Induction of mitochondrial membrane potential loss in human PC-3 cells at 10 uM after 24 hrs by JC-1 dye based flow cytometric analysis relative to control; format: functional
HT-29 = assay: Antiproliferative activity against human HT-29 cells assessed as reduction in cell viability after 48 hrs by MTT assay; format: functional, cell-based; conditions: HT-29, 48 h
PC-3 [13] = assay: Induction of apoptosis in human PC-3 cells assessed as fragmented nuclei at 5 to 10 uM after 48 hrs by Hoechst 33258 staining fluorescence microscopic analysis; format: functional, cell-based; conditions: dose 5-10 µM
PC-3 [14] = assay: Induction of cell cycle arrest in human PC-3 cells assessed as accumulation at Sub-G1 phase at 10 uM after 48 hrs by propidium iodide staining based flow cytometric analysis (reference value: 3.58%); format: functional
PC-3 [15] = assay: Induction of apoptosis in human PC-3 cells assessed as early apoptotic cells at 2.5 uM after 24 hrs by Annexin VFITC/PI staining based flow cytometric analysis (reference value: 0.1%); format: functional
PC-3 [16] = assay: Induction of apoptosis in human PC-3 cells assessed as necrotic cells at 2.5 uM after 24 hrs by Annexin VFITC/PI staining based flow cytometric analysis (reference value: 4%); format: functional
PC-3 [17] = assay: Induction of apoptosis in human PC-3 cells assessed as late apoptotic cells at 2.5 uM after 24 hrs by Annexin VFITC/PI staining based flow cytometric analysis (reference value: 0.2%); format: functional
PC-3 [18] = assay: Antiproliferative activity against human PC3 cells assessed as reduction in cell viability after 48 hrs by MTT assay; format: functional, cell-based; conditions: PC-3, 48 h
PC-3 [19] = assay: Induction of apoptosis in human PC-3 cells assessed as condensed chromatin at 5 to 10 uM after 48 hrs by acridine orange and ethidium bromide staining fluorescence microscopic analysis; format: functional, cell-based; conditions: dose 5-10 µM
PC-3 [20] = assay: Induction of apoptosis in human PC-3 cells assessed as late apoptotic cells at 7.5 uM after 24 hrs by Annexin VFITC/PI staining based flow cytometric analysis (reference value: 0.2%); format: functional
A549 = assay: Antiproliferative activity against human A549 cells assessed as reduction in cell viability after 48 hrs by MTT assay; format: functional, cell-based; conditions: A549, 48 h
PC-3 [21] = assay: Induction of cell cycle arrest in human PC-3 cells assessed as accumulation at Sub-G1 phase at 5 uM after 48 hrs by propidium iodide staining based flow cytometric analysis (reference value: 3.58%); format: functional
PC-3 [22] = assay: Induction of apoptosis in human PC-3 cells assessed as horse shoe shaped nuclei at 5 to 10 uM after 48 hrs by Hoechst 33258 staining fluorescence microscopic analysis; format: functional, cell-based; conditions: dose 5-10 µM
L132 = assay: Cytotoxicity against human L132 cells assessed as reduction in cell viability after 48 hrs by MTT assay; format: cell-based; conditions: L132, 48 h
PC-3 [23] = assay: Induction of apoptosis in human PC-3 cells assessed as condensed chromatin at 5 to 10 uM after 48 hrs by Hoechst 33258 staining fluorescence microscopic analysis; format: functional, cell-based; conditions: dose 5-10 µM
PC-3 [24] = assay: Induction of apoptosis in human PC-3 cells assessed as early apoptotic cells at 5 uM after 24 hrs by Annexin VFITC/PI staining based flow cytometric analysis (reference value: 0.1%); format: functional
PC-3 [25] = assay: Induction of apoptosis in human PC-3 cells assessed as necrotic cells at 5 uM after 24 hrs by Annexin VFITC/PI staining based flow cytometric analysis (reference value: 4%); format: functional
PC-3 [26] = assay: Induction of apoptosis in human PC-3 cells assessed as destructive fragmentation of nuclei at 5 to 10 uM after 48 hrs by acridine orange and ethidium bromide staining fluorescence microscopic analysis; format: functional, cell-based; conditions: dose 5-10 µM
PC-3 [27] = assay: Induction of ROS generation in human PC-3 cells at 10 uM incubated for 6 hrs by DSCFDA staining based spectroflurometric method; format: functional, cell-based
PC-3 [28] = assay: Induction of cell cycle arrest in human PC-3 cells assessed as accumulation at G0/G1 phase at 10 uM after 48 hrs by propidium iodide staining based flow cytometric analysis (reference value: 67.6%); format: functional
PC-3 [29] = assay: Induction of apoptosis in human PC-3 cells assessed as viable cells at 2.5 uM after 24 hrs by Annexin VFITC/PI staining based flow cytometric analysis (reference value: 95.8%); format: functional; conditions: read-out: Activity
PC-3 [30] = assay: Induction of apoptosis in human PC-3 cells after 24 hrs by Annexin VFITC/PI staining based flow cytometric analysis; format: functional, cell-based
MDA-MB-231 = assay: Antiproliferative activity against human MDA-MB-231 cells assessed as reduction in cell viability after 48 hrs by MTT assay; format: functional, cell-based; conditions: MDA-MB-231, 48 h
Saccharomyces cerevisiae [31] = assay: Potency index, ratio of Myrrhanone-B IC50 to test compound IC50 for inhibition of Saccharomyces cerevisiae alpha-glucosidase
Saccharomyces cerevisiae [32] = assay: Potency index, ratio of acarbose IC50 to test compound IC50 for inhibition of Saccharomyces cerevisiae alpha-glucosidase
[33] = Inhibition of LPS-induced IL-1beta expression in human U-937 cells preincubated for 1 hr followed by LPS addition and measured after 24 hrs by ELISA; format: functional, cell-based
[34] = Inhibition of LPS-induced TNF-alpha expression in human U-937 cells preincubated for 1 hr followed by LPS addition and measured after 24 hrs by ELISA; format: functional, cell-based

| SMILES | IC50 (SiHa) [µM] | Activity (PC-3 [1]) [%] | Activity (PC-3 [3]) [%] | Activity (PC-3 [4]) [%] | Activity (PC-3 [5]) [%] | viability at 7.5 µM (PC-3 [6]) [%] | IC50 (DU-145) [µM] | Activity (PC-3 [7]) [%] | Activity (PC-3 [8]) [%] | IC50 (U-87 MG) [µM] | Activity (PC-3 [9]) [%] | Activity (PC-3 [10]) [%] | viability at 5 µM (PC-3 [11]) [%] | Activity (PC-3 [12]) [%] | IC50 (HT-29) [µM] | Activity (PC-3 [13]) | Activity (PC-3 [14]) [%] | Activity (PC-3 [15]) [%] | IC50 (A549) [µM] | IC50 (L132) [µM] | also measured |
| --- | --- | --- | --- | --- | --- | --- | --- | --- | --- | --- | --- | --- | --- | --- | --- | --- | --- | --- | --- | --- | --- |
| C/C(=C\CC/C(C)=C/CC[C@@H]1[C@@]2(C)CCC(=O)C(C)(C)[C@H]2CC[C@@]1(C)O)CC/C=C(\C)C(=O)OCc1cn(-c2cccc(O)c2)nn1 | 48 | 1.4 | 66.5 | 23.4 | 7.54 | 31.7 | 28.4 | 10.9 | 8.26 | > 150 | 22.7 | 54.8 | 29.3 | 22 | 38.6 | Active | 2.16 | 62.9 | 42.8 | 146 | IC50 [2]: 14.2 µM; Activity (PC-3 [16]): 0.8%; Activity (PC-3 [17]): 8.7%; IC50 (PC-3 [18]): 6.57 µM; Activity (PC-3 [19]): Active; Activity (PC-3 [20]): 12.1%; Activity (PC-3 [21]): 2.09%; Activity (PC-3 [22]): Active; Activity (PC-3 [23]): Active; Activity (PC-3 [24]): 58.8%; Activity (PC-3 [25]): 1%; Activity (PC-3 [26]): Active; Activity (PC-3 [27]): Active; Activity (PC-3 [28]): 66.5%; viability at 2.5 µM (PC-3 [29]): 27.7%; Activity (PC-3 [30]): Dose-dependent effect; IC50 (MDA-MB-231): 139 µM |
| C/C(=C\CC/C(C)=C/CC[C@@H]1[C@@]2(C)CCC(=O)C(C)(C)[C@H]2CC[C@@]1(C)O)CC/C=C(\C)C(=O)OCc1cn(-c2ccc([N+](=O)[O-])cc2)nn1 | – | – | – | – | – | – | > 150 | – | – | – | – | – | – | – | – | – | – | – | > 150 | > 150 | Ratio IC50 (Saccharomyces cerevisiae [31]): 60.2; Ratio IC50 (Saccharomyces cerevisiae [32]): 767 |
| C/C(=C\CC/C(C)=C/CC[C@@H]1[C@@]2(C)CCC(=O)C(C)(C)[C@H]2CC[C@@]1(C)O)CC/C=C(\C)C(=O)OCc1cn(-c2ccccc2[N+](=O)[O-])nn1 | – | – | – | – | – | – | > 150 | – | – | – | – | – | – | – | – | – | – | – | > 150 | > 150 | IC50 [33]: 8.97 µM; Ratio IC50 (Saccharomyces cerevisiae [31]): 60.2; IC50 [34]: 9.05 µM; Ratio IC50 (Saccharomyces cerevisiae [32]): 767 |
| C/C(=C\CC/C(C)=C/CC[C@@H]1[C@@]2(C)CCC(=O)C(C)(C)[C@H]2CC[C@@]1(C)O)CC/C=C(\C)C(=O)OCc1cn(C[C@@H]2O[C@H](n3ccc(=O)[nH]c3=O)C[C@H]2O)nn1 | 29.3 | 1 | 68.7 | 11.1 | 6.76 | 27.9 | 33.1 | 12.5 | 8.38 | 75.8 | 16.6 | 58.3 | 27.1 | 38 | 34.1 | Active | 40.8 | 64.6 | 28.1 | 148 | IC50 [33]: 9.25 µM; IC50 [34]: 8.88 µM; Activity (PC-3 [16]): 0.9%; Activity (PC-3 [17]): 8.6%; IC50 (PC-3 [18]): 10.8 µM; Activity (PC-3 [19]): Active; Activity (PC-3 [20]): 12.8%; Activity (PC-3 [21]): 5.96%; Activity (PC-3 [22]): Active; Activity (PC-3 [23]): Active; Activity (PC-3 [24]): 59.4%; Activity (PC-3 [25]): 1%; Activity (PC-3 [26]): Active; Activity (PC-3 [27]): Active; Activity (PC-3 [28]): 41%; viability at 2.5 µM (PC-3 [29]): 26.9%; Activity (PC-3 [30]): Dose-dependent effect; IC50 (MDA-MB-231): 26.3 µM |
